Values after ≈ are worked out from the molar mass of the structure shown.
Legend:
Enterobacter cloacae = assay: In vitro antibacterial activity against Enterobacter cloacae OMNFI 174; assay type: functional
Haemophilus influenzae = assay: In vitro antibacterial activity against Haemophilus influenzae; assay type: functional
Proteus vulgaris = assay: In vitro antibacterial activity against Proteus vulgaris CNUR 6; assay type: functional
Staphylococcus aureus [1] = assay: In vitro antibacterial activity against Staphylococcus aureus ATCC 29213; assay type: functional
Escherichia coli [2] = assay: In vitro antibacterial activity against Escherichia coliCPX-R OBT 431; assay type: functional
Staphylococcus aureus [3] = assay: In vitro antibacterial activity against Staphylococcus aureus CPX-R OBT 687; assay type: functional
Enterococcus faecalis [4] = assay: In vitro antibacterial activity against Enterococcus faecalis LEP Br; assay type: functional
Streptococcus pyogenes = assay: In vitro antibacterial activity against Streptococcus pyogenes OMNFI BI; assay type: functional
Escherichia coli [5] = assay: In vitro antibacterial activity against Escherichia coli ATCC 25922; assay type: functional
Pseudomonas aeruginosa [6] = assay: In vitro antibacterial activity against Pseudomonas aeruginosa OBT 307; assay type: functional
Staphylococcus aureus [7] = assay: In vitro antibacterial activity against Staphylococcus aureus M-R POMM 6214; assay type: functional
Proteus mirabilis = assay: In vitro antibacterial activity against Proteus mirabilis OBT 505; assay type: functional
Staphylococcus aureus [8] = assay: In vitro antibacterial activity against Staphylococcus aureus MPR 5; assay type: functional
Enterococcus faecalis [9] = assay: In vitro antibacterial activity against Enterococcus faecalis UCMC 39690; assay type: functional
Pseudomonas aeruginosa [10] = assay: In vitro antibacterial activity against Pseudomonas aeruginosa […] 9027; assay type: functional
Streptococcus pneumoniae = assay: In vitro antibacterial activity against Streptococcus pneumoniae I 0.43; assay type: functional
Klebsiella pneumoniae = assay: In vitro antibacterial activity against Klebsiella pneumoniae ATCC 10031; assay type: functional
Escherichia coli [11] = assay: In vitro antibacterial activity against Escherichia coli 120; assay type: functional
[12] = Mean MIC against gram positive; assay type: functional
DNA gyrase = DNA gyrase (Escherichia coli, UniProt P0AES4+P0AES6); assay: Inhibitory effect against Escherichia coli Gyrase in Supercoiling assay; assay type: protein-complex assay
[13] = Mean MIC against gram negative; assay type: functional

MIC (Enterobacter cloacae) | MIC (Haemophilus influenzae) | MIC (Proteus vulgaris) | MIC (Staphylococcus aureus [1]) | MIC (Escherichia coli [2]) | MIC (Staphylococcus aureus [3]) | MIC (Enterococcus faecalis [4]) | MIC (Streptococcus pyogenes) | MIC (Escherichia coli [5]) | MIC (Pseudomonas aeruginosa [6]) | MIC (Staphylococcus aureus [7]) | MIC (Proteus mirabilis) | MIC (Staphylococcus aureus [8]) | MIC (Enterococcus faecalis [9]) | MIC (Pseudomonas aeruginosa [10]) | MIC (Streptococcus pneumoniae) | MIC (Klebsiella pneumoniae) | MIC (Escherichia coli [11]) | SMILES | further results
0.25 µg/mL (≈ 0.73 µM) | 0.25 µg/mL (≈ 0.73 µM) | 8 µg/mL (≈ 23.4 µM) | < 0.016 µg/mL | > 16 µg/mL | 0.5 µg/mL (≈ 1.46 µM) | 0.5 µg/mL (≈ 1.46 µM) | 2 µg/mL (≈ 5.84 µM) | 0.06 µg/mL (≈ 0.175 µM) | 16 µg/mL (≈ 46.7 µM) | < 0.016 µg/mL | 2 µg/mL (≈ 5.84 µM) | < 0.016 µg/mL | 0.125 µg/mL (≈ 0.365 µM) | 2 µg/mL (≈ 5.84 µM) | 0.25 µg/mL (≈ 0.73 µM) | < 0.016 µg/mL | 0.06 µg/mL (≈ 0.175 µM) | Cc1c(N2CCC(O)CC2)ccc2c(=O)c(C(=O)O)cn(C3CC3)c12 | –
2 µg/mL (≈ 5.61 µM) | 1 µg/mL (≈ 2.81 µM) | > 16 µg/mL | 0.125 µg/mL (≈ 0.351 µM) | > 16 µg/mL | 1 µg/mL (≈ 2.81 µM) | 1 µg/mL (≈ 2.81 µM) | 0.5 µg/mL (≈ 1.4 µM) | 1 µg/mL (≈ 2.81 µM) | 16 µg/mL (≈ 44.9 µM) | 0.03 µg/mL (≈ 0.0842 µM) | 16 µg/mL (≈ 44.9 µM) | < 0.016 µg/mL | 0.25 µg/mL (≈ 0.701 µM) | 16 µg/mL (≈ 44.9 µM) | 0.5 µg/mL (≈ 1.4 µM) | 0.125 µg/mL (≈ 0.351 µM) | 0.5 µg/mL (≈ 1.4 µM) | Cc1c(N2CC(C)OC(C)C2)ccc2c(=O)c(C(=O)O)cn(C3CC3)c12 (stereo not drawn) | –
1 µg/mL (≈ 2.64 µM) | < 0.016 µg/mL | > 16 µg/mL | < 0.016 µg/mL | > 16 µg/mL | 8 µg/mL (≈ 21.1 µM) | 0.25 µg/mL (≈ 0.661 µM) | 2 µg/mL (≈ 5.29 µM) | 0.25 µg/mL (≈ 0.661 µM) | 8 µg/mL (≈ 21.1 µM) | 0.25 µg/mL (≈ 0.661 µM) | 4 µg/mL (≈ 10.6 µM) | < 0.016 µg/mL | 0.06 µg/mL (≈ 0.159 µM) | 4 µg/mL (≈ 10.6 µM) | 0.25 µg/mL (≈ 0.661 µM) | 0.125 µg/mL (≈ 0.33 µM) | 0.25 µg/mL (≈ 0.661 µM) | O=C(O)c1cn(C2CC2)c2cc(N3CCc4ccccc4C3)c(F)cc2c1=O | MIC [12]: 0.21 µg/mL (≈ 0.555 µM); IC50 (DNA gyrase): 28.5 µM; MIC [13]: 1.15 µg/mL (≈ 3.04 µM)
< 0.016 µg/mL | < 0.016 µg/mL | 1 µg/mL (≈ 3.05 µM) | 0.125 µg/mL (≈ 0.382 µM) | 16 µg/mL (≈ 48.9 µM) | 4 µg/mL (≈ 12.2 µM) | 1 µg/mL (≈ 3.05 µM) | 1 µg/mL (≈ 3.05 µM) | < 0.016 µg/mL | 1 µg/mL (≈ 3.05 µM) | 0.25 µg/mL (≈ 0.764 µM) | 0.5 µg/mL (≈ 1.53 µM) | 0.125 µg/mL (≈ 0.382 µM) | 0.5 µg/mL (≈ 1.53 µM) | 0.125 µg/mL (≈ 0.382 µM) | 0.06 µg/mL (≈ 0.183 µM) | < 0.016 µg/mL | < 0.016 µg/mL | Cc1c(N2CCC(N)C2)ccc2c(=O)c(C(=O)O)cn(C3CC3)c12 (stereo not drawn) | –
0.25 µg/mL (≈ 0.732 µM) | 0.06 µg/mL (≈ 0.176 µM) | 8 µg/mL (≈ 23.4 µM) | 0.25 µg/mL (≈ 0.732 µM) | > 16 µg/mL | 8 µg/mL (≈ 23.4 µM) | 2 µg/mL (≈ 5.86 µM) | 2 µg/mL (≈ 5.86 µM) | 0.06 µg/mL (≈ 0.176 µM) | 16 µg/mL (≈ 46.9 µM) | 0.5 µg/mL (≈ 1.46 µM) | 2 µg/mL (≈ 5.86 µM) | 0.25 µg/mL (≈ 0.732 µM) | 1 µg/mL (≈ 2.93 µM) | 2 µg/mL (≈ 5.86 µM) | 2 µg/mL (≈ 5.86 µM) | < 0.016 µg/mL | 0.06 µg/mL (≈ 0.176 µM) | Cc1c(N2CCN(C)CC2)ccc2c(=O)c(C(=O)O)cn(C3CC3)c12 | MIC [12]: 1.09 µg/mL (≈ 3.19 µM); Mean MIC [12]: 0.609 µg/mL; IC50 (DNA gyrase): 83.5 µM

The next lines start with the molecule.

SMILES | MIC (Enterobacter cloacae) | MIC (Haemophilus influenzae) | MIC (Proteus vulgaris) | MIC (Staphylococcus aureus [1]) | MIC (Escherichia coli [2]) | MIC (Staphylococcus aureus [3]) | MIC (Enterococcus faecalis [4]) | MIC (Streptococcus pyogenes) | MIC (Escherichia coli [5]) | MIC (Pseudomonas aeruginosa [6]) | MIC (Staphylococcus aureus [7]) | MIC (Proteus mirabilis) | MIC (Staphylococcus aureus [8]) | MIC (Enterococcus faecalis [9]) | MIC (Pseudomonas aeruginosa [10]) | MIC (Streptococcus pneumoniae) | MIC (Klebsiella pneumoniae) | MIC (Escherichia coli [11]) | further results
Cc1c(N2CCC(C)CC2)ccc2c(=O)c(C(=O)O)cn(C3CC3)c12 | 0.25 µg/mL (≈ 0.734 µM) | < 0.016 µg/mL | 4 µg/mL (≈ 11.8 µM) | < 0.016 µg/mL | > 16 µg/mL | 1 µg/mL (≈ 2.94 µM) | 0.5 µg/mL (≈ 1.47 µM) | 0.125 µg/mL (≈ 0.367 µM) | 0.03 µg/mL (≈ 0.0881 µM) | 8 µg/mL (≈ 23.5 µM) | < 0.016 µg/mL | 2 µg/mL (≈ 5.88 µM) | < 0.016 µg/mL | 0.03 µg/mL (≈ 0.0881 µM) | 2 µg/mL (≈ 5.88 µM) | 0.25 µg/mL (≈ 0.734 µM) | < 0.016 µg/mL | 0.06 µg/mL (≈ 0.176 µM) | –
Cc1c(N2CCNCC2)ccc2c(=O)c(C(=O)O)cn(C3CC3)c12.Cl | 0.26 µg/mL | 0.03 µg/mL | 2 µg/mL | 0.5 µg/mL | > 16 µg/mL | 16 µg/mL | 2 µg/mL | 2 µg/mL | 0.03 µg/mL | 2 µg/mL | 0.5 µg/mL | 0.25 µg/mL | 0.25 µg/mL | 2 µg/mL | 0.125 µg/mL | 2 µg/mL | < 0.016 µg/mL | 0.03 µg/mL | –
Cc1c(N2CC(C)CC(C)C2)ccc2c(=O)c(C(=O)O)cn(C3CC3)c12 (stereo not drawn) | 4 µg/mL (≈ 11.3 µM) | 0.25 µg/mL (≈ 0.705 µM) | > 16 µg/mL | < 0.016 µg/mL | > 16 µg/mL | 4 µg/mL (≈ 11.3 µM) | 1 µg/mL (≈ 2.82 µM) | 2 µg/mL (≈ 5.64 µM) | 1 µg/mL (≈ 2.82 µM) | > 16 µg/mL | < 0.016 µg/mL | 16 µg/mL (≈ 45.1 µM) | < 0.016 µg/mL | 1 µg/mL (≈ 2.82 µM) | 8 µg/mL (≈ 22.6 µM) | 0.5 µg/mL (≈ 1.41 µM) | 0.5 µg/mL (≈ 1.41 µM) | 1 µg/mL (≈ 2.82 µM) | –
Cc1c(N2CCSCC2)ccc2c(=O)c(C(=O)O)cn(C3CC3)c12 | 1 µg/mL (≈ 2.9 µM) | < 0.016 µg/mL | 16 µg/mL (≈ 46.5 µM) | > 0.016 µg/mL | > 16 µg/mL | 2 µg/mL (≈ 5.81 µM) | 1 µg/mL (≈ 2.9 µM) | 0.5 µg/mL (≈ 1.45 µM) | 0.125 µg/mL (≈ 0.363 µM) | 16 µg/mL (≈ 46.5 µM) | > 0.016 µg/mL | 4 µg/mL (≈ 11.6 µM) | > 0.016 µg/mL | 0.5 µg/mL (≈ 1.45 µM) | 4 µg/mL (≈ 11.6 µM) | 1 µg/mL (≈ 2.9 µM) | < 0.016 µg/mL | 0.25 µg/mL (≈ 0.726 µM) | –
